Laboratory results taken from paper PMC4580393 (British Journal of Cancer, 2015).

Columns and labels:
[1] = following intravenous administration; no reference given; cited from earlier work
[2] = Plasma pharmacokinetics of irinotecan and SN-38 with and without pimasertib; conditions: for Ratio of AUC(0–∞) test/reference / Ratio of Cmax test/reference: day 1 with pimasertib / day 15 without pimasertib
[3] = Single-dose plasma pharmacokinetics of pimasertib with and without FOLFIRI; assay type: in vivo, human; conditions: for Ratio of AUC(0–∞) test/reference / Ratio of Cmax test/reference / CL/f: median; for Ratio of AUC(0–∞) test/reference / Ratio of Cmax test/reference: day 1 with FOLFIRI / day 8 alone
[4] = Dose-limiting toxicities and MTD of pimasertib combined with FOLFIRI; assay type: in vivo, human
[5] = Treatment-emergent adverse events, FOLFIRI plus pimasertib; assay type: in vivo, human
KRAS mt mCRC = assay: Best overall response by RECIST v1.0, FOLFIRI plus pimasertib second-line; assay type: in vivo, human; conditions: 45 or 60 mg per day plus FOLFIRI
[6] = ref Awada et al, 2012, cited from earlier work
human liver microsomes = conditions: in vitro, ref Merck, data on file; cited from earlier work
[7] = 45 mg per day pimasertib cohort
[8] = median, irinotecan 180 mg m^−2 infusion, day 1, with pimasertib (test)
[9] = median, irinotecan 180 mg m^−2 infusion, day 15, without pimasertib (reference)

SMILES: O=c1[nH]cc(F)c(=O)[nH]1 [5-FU, 5-fluorouracil]
- mean apparent terminal half-life [1]: ~0.267 h

SMILES: CCc1c2c(nc3ccc(O)cc13)-c1cc3c(c(=O)n1C2)COC(=O)[C@]3(O)CC [SN-38]
- increase in Cmax with coadministration of pimasertib [2, 7]: 11%
- reduction of exposure (AUC0–∞) in the presence of pimasertib [2, 7]: 9%
- Ratio of AUC(0–∞) test/reference ([2]; median): 0.91
- Ratio of Cmax test/reference ([2]; median): 1.11
- AUC(0–t) [2, 8]: 150 ng·h/mL
- AUC(0–∞) [2, 8]: 198 ng·h/mL
- Cmax [2, 8]: 20.4 ng/mL
- T1/2 [2, 8]: 13.6 h
- AUC(0–t) [2, 9]: 146 ng·h/mL
- AUC(0–∞) [2, 9]: 206 ng·h/mL
- Cmax [2, 9]: 15.1 ng/mL
- T1/2 [2, 9]: 15.7 h
- Tmax [2, 9]: 1.6 h

SMILES: O=C(NC[C@H](O)CO)c1ccncc1Nc1ccc(I)cc1F [pimasertib, Pimasertib]
- reduction of exposure (AUC0–∞) in the presence of FOLFIRI ([3]; 45 mg per day cohort): 8.3%
- reduction of maximum plasma concentration (Cmax) in the presence of FOLFIRI ([3]; 45 mg per day cohort): 16.3%
- Ratio of AUC(0–∞) test/reference ([3]; 45 mg per day): 0.917
- Ratio of Cmax test/reference ([3]; 45 mg per day): 0.837
- Ratio of AUC(0–∞) test/reference ([3]; 60 mg per day): 0.825
- Ratio of Cmax test/reference ([3]; 60 mg per day): 0.751
- CL/f ([3]; single 45 mg dose, day 1, with FOLFIRI (test)): 38.7 L/h
- CL/f ([3]; single 45 mg dose, day 8, alone (reference)): 34.2 L/h
- CL/f ([3]; single 60 mg dose, day 1, with FOLFIRI (test)): 42.1 L/h
- CL/f ([3]; single 60 mg dose, day 8, alone (reference)): 44.6 L/h
- patients who experienced a DLT ([4]; DLT analysis set, 15 patients, both dose levels): three
- DLTs ([4]; first three patients, 45 mg per day): no DLTs
- Patients with ≥1 pimasertib-related TEAE (by worst grade) ([5]; 45 mg per day (n=10), grade 1/2): 5
- Patients with ≥1 pimasertib-related TEAE (by worst grade) ([5]; 45 mg per day (n=10), grade 3): 5
- Patients with ≥1 pimasertib-related TEAE (by worst grade) ([5]; 45 mg per day (n=10), grade 4): 0
- incidence of grade ≥3 pimasertib-related TEAEs ([5]; 45 mg per day dose): 50.0%
- Patients with ≥1 pimasertib-related TEAE (by worst grade) ([5]; 60 mg per day (n=6), grade 1/2): 2
- Patients with ≥1 pimasertib-related TEAE (by worst grade) ([5]; 60 mg per day (n=6), grade 3): 2
- Patients with ≥1 pimasertib-related TEAE (by worst grade) ([5]; 60 mg per day (n=6), grade 4): 2
- incidence of grade ≥3 pimasertib-related TEAEs ([5]; 60 mg per day dose): 66.7%
- Patients with ≥1 pimasertib-related TEAE (by worst grade) ([5]; Overall (n=16), grade 1/2): 7
- Patients with ≥1 pimasertib-related TEAE (by worst grade) ([5]; Overall (n=16), grade 3): 7
- Patients with ≥1 pimasertib-related TEAE (by worst grade) ([5]; Overall (n=16), grade 4): 2
- time to resolution of ocular AEs from day of onset ([5]; all events except SRD in two patients): 3 to 139 days
- Asthenia, pimasertib-related TEAE, patients ([5]; overall n=16): 37.5%
- Diarrhoea, pimasertib-related TEAE, patients ([5]; overall n=16): 62.5%
- Serous retinal detachment (SRD), pimasertib-related TEAE, patients ([5]; overall n=16): 37.5%
- Skin/rash, pimasertib-related TEAE, patients ([5]; overall n=16): 50%
- patients with at least one ocular event during trial treatment ([5]; overall n=16): 43.8%
- patients with skin/rash events ([5]; overall n=16): 56.3%
- stable disease maintained for at least 12 weeks, share of the nine SD patients (KRAS mt mCRC): 66.7%
- partial response as best overall response, patients (KRAS mt mCRC; efficacy analysis set n=15): 13.3%
- progressive disease as best overall response, patients (KRAS mt mCRC; efficacy analysis set n=15): 20.0%
- stable disease as best overall response, patients (KRAS mt mCRC; efficacy analysis set n=15): 60.0%
- recommended single-agent dose for phase II trials ([6]; administered continuously): 60 mg twice-daily
- dose-limiting toxicities ([6]; single-agent phase I dose-escalation trial): skin rash, acneiform dermatitis, ocular events and stomatitis
- effect on 5-FU metabolism (human liver microsomes): does not alter 5-FU metabolism

SMILES: CCc1c2c(nc3ccc(OC(=O)N4CCC(N5CCCCC5)CC4)cc13)-c1cc3c(c(=O)n1C2)COC(=O)[C@]3(O)CC [Irinotecan, irinotecan, reference compound]
- reduction of Cmax in the presence of pimasertib [2, 7]: 2.7%
- reduction of exposure (AUC0–∞) in the presence of pimasertib [2, 7]: 8.9%
- AUC(0-inf) ([2]; human, in vivo, 180 mg m^−2, AUC(0–∞), median, irinotecan 180 mg m^−2 infusion, day 1, with pimasertib (test)): 10600 ng·h/mL
- Cmax ([2]; human, in vivo, 180 mg m^−2, Cmax, median, irinotecan 180 mg m^−2 infusion, day 15, without pimasertib (reference)): 2120 ng/mL
- Tmax ([2]; human, in vivo, 180 mg m^−2, Tmax, median, irinotecan 180 mg m^−2 infusion, day 1, with pimasertib (test)): 1.5 h
- Ratio of AUC(0–∞) test/reference ([2]; median): 0.911
- Ratio of Cmax test/reference ([2]; median): 0.973
- Tmax [2, 9]: 1.54 h
